Measured values reported in patent US9469597B2, “(Hetero)aryl cyclopropylamine compounds as LSD1 inhibitors” (ORYZON GENOMICS, S.A., priority 2011, dated 2016).
Counter-ions that a name gives are not always drawn.

Experiments:
[1] = biological target: Human recombinant monoamine oxidase MAO-A (Homo sapiens (Human), UniProt P21397); assay: Monoamine oxidase assay (kynuramine to 4-hydroxyquinoline fluorescence), MAO-A; assay type: biochemical; conditions: for Ki: Table 1, term Ki value used as designation for the IC50 value; for IC50: Table 2
Human recombinant monoamine oxidase MAO-A, sequence (P21397 whole entry): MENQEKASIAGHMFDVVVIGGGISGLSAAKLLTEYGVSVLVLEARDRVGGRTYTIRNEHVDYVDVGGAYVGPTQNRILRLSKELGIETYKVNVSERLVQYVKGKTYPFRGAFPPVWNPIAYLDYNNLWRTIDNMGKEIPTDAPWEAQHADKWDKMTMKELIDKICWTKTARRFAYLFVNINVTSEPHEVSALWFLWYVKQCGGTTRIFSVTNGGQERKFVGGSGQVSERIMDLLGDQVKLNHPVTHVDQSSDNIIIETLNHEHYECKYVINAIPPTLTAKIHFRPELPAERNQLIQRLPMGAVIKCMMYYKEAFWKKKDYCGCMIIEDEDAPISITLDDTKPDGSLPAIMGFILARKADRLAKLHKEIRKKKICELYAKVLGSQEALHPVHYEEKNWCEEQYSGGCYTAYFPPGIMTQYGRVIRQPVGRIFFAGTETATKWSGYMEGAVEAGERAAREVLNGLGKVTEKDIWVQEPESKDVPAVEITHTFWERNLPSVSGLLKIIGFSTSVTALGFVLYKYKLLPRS
Text: (§1) Human recombinant monoamine oxidase proteins MAO-A and MAO-B were purchased from Sigma Aldrich. MAOs catalyze the oxidative deamination of primary, secondary and tertiary amines. In order to monitor MAO enzymatic activities and/or their inhibition rate by inhibitor(s) of interest, a fluorescence-based (inhibitor)-screening assay was set up. 3-(2-Aminophenyl)-3-oxopropanamine (kynuramine dihydrobromide, Sigma Aldrich), a non fluorescent compound was chosen as a substrate. Kynuramine is a non-specific substrate for both MAO-A and MAO-B activities. While undergoing oxidative deamination by MAO activities, kynuramine is converted into 4-hydroxyquinoline (4-HQ), a resulting fluorescent product.
(§2) The monoamine oxidase activity was estimated by measuring the conversion of kynuramine into 4-hydroxyquinoline. Assays were conducted in 96-well black plates with clear bottom (Corning) in a final volume of 100 μL. The assay buffer was 100 mM HEPES, pH 7.5. Each experiment was performed in duplicate within the same experiment.
Clorgyline and Deprenyl (Sigma Aldrich) was used as a control for specific inhibition of MAO-A and MAO-B respectively.
After leaving the enzyme(s) interacting with the inhibitor, KM of kynuramine was added to each reaction for MAO-B and MAO-A assay respectively, and the reaction was left for 1 hour at 37° C. in the dark. The oxidative deamination of the substrate was stopped by adding 50 μL of NaOH 2N.
(§3) The IC50 values of each inhibitor were calculated with GraphPad Prism Software.

[2] = biological target: Human recombinant monoamine oxidase MAO-B (Homo sapiens (Human), UniProt P27338); assay: Monoamine oxidase assay (kynuramine to 4-hydroxyquinoline fluorescence), MAO-B; assay type: biochemical; conditions: Table 2
Text: as §1, §2
Clorgyline and Deprenyl (Sigma Aldrich) was used as a control for specific inhibition of MAO-A and MAO-B respectively. […]
as §3

[3] = test system: THP-1 cells; assay: Induction of differentiation of THP-1 leukemia cells (CD11b membrane expression, flow cytometry); assay type: cell-based, human; conditions: at 100 nM, 96 h treatment
Procedure: By analyzing the induction of CD11b membrane expression on THP-1 cells we are assessing the ability of LSD1 inhibitors to induce terminal monocytic differentiation of a MLL-AF9 AML cell line. […] They carry t(9;11)(p21;q23) leading to MLL-MLLT3 (MLL-AF9) fusion gene. This cell line can undergo monocytic differentiation upon treatment with the appropriate stimulus. […] In this assay, 150,000 THP-1 cells were seeded in 1 ml of complete culture medium in 6-well tissue culture plates. […] Cells were kept in the presence of test compound for 96 h at a 5% CO2 atmosphere at 37° C. After this treatment period, cells were harvested, washed twice with PBS buffer and placed in a V-bottom 96-well plate. Each treated sample was split in two. […] Percentage of CD11b positive cells, as an indicator of monocytic differentiation, was determined compared to isotype control antibody stained cells. EC50 values were calculated by non-linear regression analysis.

Structure (SMILES)	Ki [1] [µM]	IC50 [1] [µM]	IC50 [2] [µM]	CD11b+ cells [3] [% CD11b+ cells at 100 nM]
N[C@H]1CC[C@@H](N[C@H]2C[C@@H]2c2ccccc2)CC1 [Example 2, (cis)-N1-((1S,2R)-2-phenylcyclopropyl)cyclohexane-1,4-diamine hydrochloride]	> 40	> 100	–	–
Cl.N[C@H]1CC[C@H](N[C@H]2C[C@@H]2c2ccccc2)CC1 [Example 3, (trans)-N1-((1S,2R)-2-phenylcyclopropyl)cyclohexane-1,4-diamine hydrochloride]	> 40	> 100	–	13
N[C@H]1CC[C@H](N[C@@H]2C[C@H]2c2ccccc2)CC1 [Example 5, (trans)-N1-((1R,2S)-2-phenylcyclopropyl)cyclohexane-1,4-diamine hydrochloride]	–	> 100	–	–
N[C@H]1CC[C@@H](N[C@@H]2C[C@H]2c2ccccc2)CC1 [Example 4, (cis)-N1-((1R,2S)-2-phenylcyclopropyl)cyclohexane-1,4-diamine hydrochloride]	> 40	> 100	–	–
NC1CCC(N[C@@H]2C[C@@H]2c2ccccc2)CC1 (relative stereo) [Example 21, N1-((cis)-2-phenylcyclopropyl)cyclohexane-1,4-diamine]	–	5.23	–	–
NC1CCC(N[C@H]2C[C@@H]2c2ccccc2)CC1 (mixture of isomers) [Example 1, N1-((trans)-2-phenylcyclopropyl)cyclohexane-1,4-diamine dihydrochloride]	> 40	> 100	–	–
